Several values for one entry are separate records, joined by “and”; a condition that tells them apart may be missing. Equal entries are not always repeated.
How the values were obtained:
[1] = Pharmacokinetic evaluation in SD rats (i.g.); format: in vivo; details: male, Sprague-Dawley (SD), rat, plasma, po, 2.0 mg/kg; for AUC(0-t): read-out: Area under curve AUC0-t; for CL/F: read-out: Clearance rate CL/F; for half-life: read-out: Half-life T½ (converted); for Cmax: read-out: Plasma concentration Cmax
Description: SD rats were used as test animals. After intragastric (i.g.) administration of the example compounds to SD rats, the plasma concentrations of the compounds at different time points were determined by the LC/MS/MS method. The pharmacokinetic behaviors of the compounds of the present disclosure in SD rats were studied, and their pharmacokinetic profiles were evaluated.
Compounds 16 and 32: Four male SD rats, provided by Vital River Laboratory Animal Technology Co., Ltd. The animals were fasted overnight and then intragastrically dosed.
Compound 38: Two male SD rats, provided by Zhejiang Vital River Laboratory Animal Technology Co., Ltd. The animals were fasted overnight and then intragastrically dosed.
Compounds 16 and 32: Certain amounts of the test compounds were weighed out, and 5% DMSO+5% tween 80+90% normal saline was added to prepare 0.2 mg/mL colorless clear solutions.
Compound 38: A certain amount of the test compound was weighed out, and 25% PEG400+75% (10% TPGS+1% HPMC K100LV) was added to prepare a 5 mg/mL colorless clear solution.
Compounds 16 and 32: The administration dose was 2 mg/kg, and the administration volume was 10.0 mL/kg.
Compound 38: The administration dose was 50 mg/kg, and the administration volume was 10.0 mL/kg.
0.2-mL blood samples were collected from the orbit before administration and 0.25, 0.5, 1.0, 2.0, 4.0, 6.0, 8.0, 11.0, and 24.0 h after administration, placed into EDTA-K2 anticoagulation test tubes, and centrifuged at 10,000 rpm for 1 min (4° C.), and the plasma was separated within 1 h and stored with dry ice before analysis. The procedures from the blood collection to the centrifugation were performed under ice-bath conditions. Access to food was given 2 h after administration.
Compounds 16 and 32: Determination of the plasma concentrations of the test compounds in SD rats after the compounds were administered at different concentrations: A 25-μL sample of the SD rat plasma collected at each time point after administration was taken, and 200 μL of acetonitrile containing an internal standard (verapamil, 100 ng/mL) was added. The mixture was vortexed and centrifuged at 3700 rpm for 10 min. 0.1 μL of the supernatant was taken for LC/MS/MS analysis.
Compound 38: Determination of the plasma concentration of the test compound in SD rats after the compound was administered at different concentrations: A 25-μL sample of the SD rat plasma collected at each time point after administration was taken, and 200 μL of acetonitrile containing an internal standard (dexamethasone, 100 ng/mL) was added. The mixture was vortexed and centrifuged at 4000 rpm for 15 min. 1 μL of the supernatant was taken for LC/MS/MS analysis.

[2] = test system: rat incision pain model; experiment: Analgesic efficacy in rat incision pain model (mechanical pain threshold); format: in vivo, SD rats; details: i.g./one dose; for Pain threshold: rat incision pain model, 5 h after administration; for Percent increase in threshold: vs. vehicle control
Description: To evaluate the analgesic efficacy of the compounds of the present disclosure in inhibiting pain in rats of a rat incision pain model.
The compounds of Example 16 and Example 32.
Test animals: SD rats, purchased from Beijing Vital River Laboratory Animal Technology Co., Ltd. (license number: SCXK (Zhejiang) 2019-0001), weighing about 180 g on purchase.
Housing conditions: 5 animals/cage, a 12/12-hour light/dark cycle, a constant temperature of 23±1° C. with humidity at 50 to 60%, ad libitum access to food and water.
After acclimatization, the SD rats were grouped as follows:
Nine SD rats, weighing 170-190 g, were selected for this study. The mechanical pain threshold was measured using an electronic aesthesiometer. Then an incision pain surgery was performed. During the surgery, after the rats were anesthetized with Zoletil (Zoletil-50, 250 mg, diluted with normal saline to 50 mL after being dissolved, injected at a dose of 2 mL per 200 g of body weight), a 1 cm long incision was made in the middle of the plantar surface of the left hind paw using a No. 10 scalpel blade, cutting through the skin and fascia, and the incision was closed using 3-0 sterile silk sutures. The injured area was disinfected with penicillin, and the animals were returned to their original place to recover overnight. After the overnight recovery, oral gavage administration was performed. Five hours after administration (about 24 h after surgery), the mechanical pain threshold was measured using an electronic aesthesiometer.
Data were recorded using Excel statistical software: The averages were calculated using avg; the SD values were calculated using STDEV; the SEM values were calculated using STDEV/SQRT (the number of animals per group). Plotting was performed using GraphPad Prism software. Statistical analysis of the data was performed using one-way ANOVA and t-test.
Percent increase in threshold (%)=[(Gt−G0)/G0]×100(%), where Gt is the plantar pain threshold of the administration group, and G0 is the plantar pain threshold of the vehicle group.

SMILES	bioavailability [1] [%]	AUC(0-t) [1] [ng·h/mL]	CL/F [1] [mL/min/kg]	half-life [1] [h]	Cmax [1] [ng/mL]	Pain threshold ([2]; 50 mpk)	Pain threshold ([2]; 100 mpk)	Pain threshold ([2]; 200 mpk)	Percent increase in threshold ([2]; 50 mpk) [%]	Percent increase in threshold ([2]; 100 mpk) [%]	Percent increase in threshold ([2]; 200 mpk) [%]	Pain threshold ([2]; 30 mpk)	Percent increase in threshold ([2]; 30 mpk) [%]
CO/N=C(\N)c1cc(NC(=O)[C@@H]2O[C@@](C)(C(F)(F)F)[C@@H](C)[C@H]2c2ccc(F)c(F)c2OC)ccn1 [Example 16]	51.3	329	101	9.1	120	10.8 gf and 10.8 ± 0.5 gf	14.9 gf and 14.9 ± 1.5 gf	22.3 gf and 22.3 ± 1.8 gf	7	49	122	–	–
COc1c([C@H]2[C@H](C(=O)Nc3ccnc(/C(N)=N/O)c3)O[C@@](C)(C(F)(F)F)[C@H]2C)ccc(F)c1F [Example 32]	24.7	321	96.9	2.6	85.7	–	22.3 gf and 22.3 ± 1.3 gf	22.4 gf and 22.4 ± 2.5 gf	–	114	114	12.0 gf and 12.0 ± 0.9 gf	15

— patent US20260055088A1, “HETEROCYCLIC COMPOUND, METHOD FOR PREPARING SAME, AND PHARMACEUTICAL USE THEREOF” (Jiangsu Hengrui Pharmaceuticals Co., Ltd., priority 2022, published 2026)
